The values below come from patent US9505834B2, “Methods for controlling the galactosylation profile of recombinantly-expressed proteins” (AbbVie Inc., priority 2011, dated 2016).

The test system of assay [1] is adalimumab-producing CHO cell line. The following applies: 10 μM manganese chloride; within historical variation. As to the method:
(§1) For all studies with CHO cell lines described throughout this invention, samples were collected daily and measured for cell density and viability using a Cedex cell counter. Retention samples for titer analysis via Poros A method were collected by centrifugation at 12,000 RPM for 5 min when the culture viability began declining. The cultures were harvested by collecting 125 mL aliquots and centrifuging at 3,000 RPM for 30 min when culture viability was near or below 50%. All supernatants were stored at −80° C. until analysis.
All media were filtered through Corning 0.5 L or 1 L filter systems (0.22 μm PES) and stored at 4° C. until use.
Production cultures were initiated in duplicate 500 mL Corning vented non-baffled shake flasks (200 mL working volume) at an initial VCD of approximately 0.5×10^6 cells/mL. Cultures were maintained on orbital shakers at 110 RPM in a dry incubator at 35° C. and 5% CO2. A glucose solution (1.25% (v/v) of 40% solution) was fed when the media glucose concentration fell below 3 g/L.

The subject of assay [2] is adalimumab-producing CHO cell line #3. The experiment in a line: Example 5 culture growth & productivity. It is filed as cell-based, Chinese Hamster. The note with it: 30 mM galactose alone. As to the method:
as §1
Growth and production media for the adalimumab-producing CHO cell line #3 were prepared using the proprietary Life Technologies Gibco chemically defined media, GIA-1.
Upon thaw, cells were expanded in Corning vented non-baffled shake flasks maintained on orbital shakers at 140 RPM, and in 10 L cell bags (2 L working volume) maintained at 25 RPM, 7° angle, and 0.25 SLPM airflow in a dry incubator at 36° C. and 5% CO2. Production cultures were initiated in 3 L bioreactors (1.4 L initial working volume) at 36° C., 30% dissolved oxygen, 200 RPM, and pH 6.9±0.2. A fixed split ratio of cells to media of 1:6.7 was utilized to initiate the production stage cultures. A temperature shift was performed when the culture VCD reached a value higher than 5×10^6 cells/mL. […]

Consider “Manganese (II) Chloride [manganese chloride]”, for which the “maximum VCD compared to all other cultures” value in assay [1] is recorded as “slightly higher maximum VCD”.

For the molecule `O=C[C@H](O)[C@@H](O)[C@@H](O)[C@H](O)CO` [galactose, D(+)Galactose], in assay [2], the growth profile result was “grew slower and reached a lower peak VCD”.
